Source: the kinase profiling compilation of Christmann-Franck et al. (2016)

Tests used:
Experiment in all cases: KINOMEscan competition binding
Conditions in all cases: compound 10.0 µM
[1] = target: ACVR1 (human) (UniProt Q04771)
[2] = target: CAMKK1 (human) (UniProt Q8N5S9)
[3] = target: CAMKK2 (human) (UniProt Q96RR4)
[4] = target: CLK3 (human) (UniProt P49761)
[5] = target: CSNK1D (human) (UniProt P48730)
[6] = target: CSNK1G1 (human) (UniProt Q9HCP0)
[7] = target: CSNK1G3 (human) (UniProt Q9Y6M4)
[8] = target: DAPK2 (human) (UniProt Q9UIK4)
[9] = target: DYRK1B (human) (UniProt Q9Y463)
[10] = tested on: EGFR (human), P00533 [G719S]
[11] = target: FLT3 (human) (UniProt P36888)
[12] = tested on: FLT3 (human), P36888 [D835H]
[13] = target: HIPK1 (human) (UniProt Q86Z02)
[14] = target: JAK1 JH2 pseudokinase (human) (UniProt P23458)
[15] = target: JAK3 JH1 catalytic (human) (UniProt P52333)
[16] = target: KIT (human) (UniProt P10721)
[17] = tested on: KIT (human), P10721 [D816V]
[18] = tested on: KIT (human), P10721 [V559D/T670I]
[19] = target: MAP2K3 (human) (UniProt P46734)
[20] = target: MAP3K5 (human) (UniProt Q99683)
[21] = target: MAP4K2 (human) (UniProt Q12851)
[22] = target: MAP4K4 (human) (UniProt O95819)
[23] = target: MELK (human) (UniProt Q14680)
[24] = target: MKNK1 (human) (UniProt Q9BUB5)
[25] = target: MYLK (human) (UniProt Q15746)
[26] = target: MYLK3 (human) (UniProt Q32MK0)
[27] = target: MYLK4 (human) (UniProt Q86YV6)
[28] = target: NEK2 (human) (UniProt P51955)
[29] = target: PDGFRB (human) (UniProt P09619)
[30] = target: PIM1 (human) (UniProt P11309)
[31] = target: PIM2 (human) (UniProt Q9P1W9)
[32] = target: PIP5K1A (human) (UniProt Q99755)
[33] = target: PLK4 (human) (UniProt O00444)
[34] = target: RIOK2 (human) (UniProt Q9BVS4)
[35] = target: RIPK2 (human) (UniProt O43353)
[36] = target: RIPK4 (human) (UniProt P57078)
[37] = target: RPS6KA6 KD2 (human) (UniProt Q9UK32)
[38] = target: STK16 (human) (UniProt O75716)
[39] = target: STK17A (human) (UniProt Q9UEE5)
[40] = target: STK17B (human) (UniProt O94768)
[41] = target: TTK (human) (UniProt P33981)
[42] = target: ULK2 (human) (UniProt Q8IYT8)

Chain of PIM2 (human) (Q9P1W9 whole entry, looked up): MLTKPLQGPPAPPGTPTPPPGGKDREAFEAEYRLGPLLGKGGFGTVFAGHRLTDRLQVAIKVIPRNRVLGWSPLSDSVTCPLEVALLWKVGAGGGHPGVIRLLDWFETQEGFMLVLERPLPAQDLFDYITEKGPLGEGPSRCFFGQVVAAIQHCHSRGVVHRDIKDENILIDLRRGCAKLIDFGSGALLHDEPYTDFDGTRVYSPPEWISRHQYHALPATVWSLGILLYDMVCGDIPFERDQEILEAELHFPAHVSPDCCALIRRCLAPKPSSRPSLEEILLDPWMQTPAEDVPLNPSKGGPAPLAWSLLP
Chain of STK17A (human) (Q9UEE5 whole entry, looked up): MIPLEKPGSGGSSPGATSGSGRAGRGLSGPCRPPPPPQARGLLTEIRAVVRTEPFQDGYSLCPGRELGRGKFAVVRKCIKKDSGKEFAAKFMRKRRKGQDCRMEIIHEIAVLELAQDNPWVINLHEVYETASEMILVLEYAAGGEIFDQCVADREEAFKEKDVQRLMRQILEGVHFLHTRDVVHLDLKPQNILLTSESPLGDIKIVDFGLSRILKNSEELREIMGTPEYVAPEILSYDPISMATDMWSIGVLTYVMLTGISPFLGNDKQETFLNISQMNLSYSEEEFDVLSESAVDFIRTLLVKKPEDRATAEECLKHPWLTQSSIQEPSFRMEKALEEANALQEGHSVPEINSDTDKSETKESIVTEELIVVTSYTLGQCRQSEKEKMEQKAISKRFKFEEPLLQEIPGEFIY
Chain of KIT (human) (P10721 whole entry, looked up): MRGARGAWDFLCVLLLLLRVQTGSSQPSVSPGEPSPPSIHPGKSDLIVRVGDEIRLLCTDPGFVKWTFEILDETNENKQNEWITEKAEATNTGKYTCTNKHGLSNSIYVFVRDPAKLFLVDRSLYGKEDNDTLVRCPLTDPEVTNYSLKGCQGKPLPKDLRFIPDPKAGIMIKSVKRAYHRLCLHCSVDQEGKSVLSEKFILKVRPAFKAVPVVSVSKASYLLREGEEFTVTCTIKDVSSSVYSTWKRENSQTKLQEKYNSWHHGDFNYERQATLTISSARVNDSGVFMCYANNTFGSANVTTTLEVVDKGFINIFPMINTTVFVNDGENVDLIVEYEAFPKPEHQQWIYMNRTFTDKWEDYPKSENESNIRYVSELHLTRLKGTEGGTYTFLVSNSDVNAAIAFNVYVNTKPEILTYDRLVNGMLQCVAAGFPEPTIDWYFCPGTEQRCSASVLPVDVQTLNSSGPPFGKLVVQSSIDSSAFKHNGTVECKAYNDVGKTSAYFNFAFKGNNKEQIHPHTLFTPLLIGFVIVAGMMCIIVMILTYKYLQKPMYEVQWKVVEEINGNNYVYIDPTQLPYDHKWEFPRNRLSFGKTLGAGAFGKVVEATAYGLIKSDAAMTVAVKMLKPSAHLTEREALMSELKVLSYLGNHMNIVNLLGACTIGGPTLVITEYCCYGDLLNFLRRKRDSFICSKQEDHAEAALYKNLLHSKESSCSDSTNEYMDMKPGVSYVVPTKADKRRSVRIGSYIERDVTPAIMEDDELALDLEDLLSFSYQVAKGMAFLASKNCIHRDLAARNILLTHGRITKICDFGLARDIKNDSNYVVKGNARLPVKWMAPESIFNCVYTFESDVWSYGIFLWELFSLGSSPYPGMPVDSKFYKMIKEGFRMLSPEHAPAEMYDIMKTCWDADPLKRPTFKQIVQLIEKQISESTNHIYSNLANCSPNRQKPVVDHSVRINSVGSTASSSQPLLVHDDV
Chain of PLK4 (human) (O00444 whole entry, looked up): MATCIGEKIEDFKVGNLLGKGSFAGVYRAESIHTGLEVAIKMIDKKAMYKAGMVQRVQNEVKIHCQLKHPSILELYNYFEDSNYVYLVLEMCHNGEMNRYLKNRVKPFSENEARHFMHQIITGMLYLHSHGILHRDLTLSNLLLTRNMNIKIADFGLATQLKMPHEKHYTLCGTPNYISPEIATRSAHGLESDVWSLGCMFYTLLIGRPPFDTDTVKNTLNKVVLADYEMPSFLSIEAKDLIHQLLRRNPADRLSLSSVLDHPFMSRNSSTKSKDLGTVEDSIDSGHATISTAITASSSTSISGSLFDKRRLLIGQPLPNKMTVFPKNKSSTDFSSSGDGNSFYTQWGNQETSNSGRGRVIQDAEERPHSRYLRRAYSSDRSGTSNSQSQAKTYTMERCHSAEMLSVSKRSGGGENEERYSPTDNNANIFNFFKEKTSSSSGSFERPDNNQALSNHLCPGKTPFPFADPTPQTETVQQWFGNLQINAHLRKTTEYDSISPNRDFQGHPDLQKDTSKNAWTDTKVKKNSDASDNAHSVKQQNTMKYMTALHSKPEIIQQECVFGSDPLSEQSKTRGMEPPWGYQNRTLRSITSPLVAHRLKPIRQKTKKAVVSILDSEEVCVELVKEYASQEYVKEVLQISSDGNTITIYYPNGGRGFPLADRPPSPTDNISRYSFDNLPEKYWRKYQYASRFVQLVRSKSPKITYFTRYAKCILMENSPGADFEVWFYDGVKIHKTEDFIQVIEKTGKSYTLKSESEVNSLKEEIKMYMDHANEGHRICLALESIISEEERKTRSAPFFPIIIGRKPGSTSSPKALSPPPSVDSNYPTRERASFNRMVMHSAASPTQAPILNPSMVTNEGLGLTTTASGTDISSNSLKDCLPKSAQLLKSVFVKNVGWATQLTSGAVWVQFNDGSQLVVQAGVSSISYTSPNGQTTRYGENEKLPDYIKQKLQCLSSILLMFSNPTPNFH
Chain of CSNK1D (human) (P48730 whole entry, looked up): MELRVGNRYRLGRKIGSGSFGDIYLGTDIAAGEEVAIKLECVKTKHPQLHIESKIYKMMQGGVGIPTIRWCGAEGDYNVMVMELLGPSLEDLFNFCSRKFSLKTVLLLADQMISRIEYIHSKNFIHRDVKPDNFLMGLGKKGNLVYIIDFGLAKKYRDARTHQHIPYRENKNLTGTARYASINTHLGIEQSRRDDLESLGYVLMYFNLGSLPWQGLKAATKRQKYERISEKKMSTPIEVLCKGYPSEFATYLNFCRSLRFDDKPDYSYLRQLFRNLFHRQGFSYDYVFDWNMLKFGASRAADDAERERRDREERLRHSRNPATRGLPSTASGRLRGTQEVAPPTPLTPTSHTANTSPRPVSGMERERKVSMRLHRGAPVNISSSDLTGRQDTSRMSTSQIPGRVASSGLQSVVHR
Chain of STK17B (human) (O94768 whole entry, looked up): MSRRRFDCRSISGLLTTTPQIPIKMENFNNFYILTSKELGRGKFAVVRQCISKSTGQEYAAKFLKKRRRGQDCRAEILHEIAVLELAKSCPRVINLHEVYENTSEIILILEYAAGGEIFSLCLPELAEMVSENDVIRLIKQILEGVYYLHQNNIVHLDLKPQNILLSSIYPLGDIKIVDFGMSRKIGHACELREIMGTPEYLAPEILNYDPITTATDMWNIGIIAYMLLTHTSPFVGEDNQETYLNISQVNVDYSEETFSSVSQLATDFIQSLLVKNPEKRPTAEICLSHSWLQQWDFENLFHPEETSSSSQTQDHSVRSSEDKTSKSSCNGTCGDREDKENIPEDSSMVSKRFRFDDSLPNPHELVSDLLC
Chain of CSNK1G1 (human) (Q9HCP0 whole entry, looked up): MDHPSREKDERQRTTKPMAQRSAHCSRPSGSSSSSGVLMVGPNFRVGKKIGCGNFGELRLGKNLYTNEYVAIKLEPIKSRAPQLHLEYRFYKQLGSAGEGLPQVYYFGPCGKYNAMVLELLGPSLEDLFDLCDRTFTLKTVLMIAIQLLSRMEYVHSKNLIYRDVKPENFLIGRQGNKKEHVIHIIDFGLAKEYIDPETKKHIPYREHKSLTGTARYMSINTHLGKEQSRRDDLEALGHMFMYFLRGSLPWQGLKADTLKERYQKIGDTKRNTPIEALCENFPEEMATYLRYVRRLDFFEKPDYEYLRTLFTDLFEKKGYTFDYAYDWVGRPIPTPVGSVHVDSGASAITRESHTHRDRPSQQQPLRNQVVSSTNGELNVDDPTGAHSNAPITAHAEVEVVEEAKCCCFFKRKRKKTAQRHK
Chain of PIM1 (human) (P11309 whole entry, looked up): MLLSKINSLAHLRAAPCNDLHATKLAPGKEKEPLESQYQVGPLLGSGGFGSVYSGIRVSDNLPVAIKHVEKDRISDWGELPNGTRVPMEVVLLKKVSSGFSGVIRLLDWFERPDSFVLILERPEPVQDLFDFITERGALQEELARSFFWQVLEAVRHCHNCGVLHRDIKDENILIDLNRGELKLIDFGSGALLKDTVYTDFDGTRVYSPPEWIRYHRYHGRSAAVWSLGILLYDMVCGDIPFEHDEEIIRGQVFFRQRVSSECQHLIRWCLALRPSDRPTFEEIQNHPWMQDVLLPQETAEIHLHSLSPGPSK
Chain of NEK2 (human) (P51955 whole entry, looked up): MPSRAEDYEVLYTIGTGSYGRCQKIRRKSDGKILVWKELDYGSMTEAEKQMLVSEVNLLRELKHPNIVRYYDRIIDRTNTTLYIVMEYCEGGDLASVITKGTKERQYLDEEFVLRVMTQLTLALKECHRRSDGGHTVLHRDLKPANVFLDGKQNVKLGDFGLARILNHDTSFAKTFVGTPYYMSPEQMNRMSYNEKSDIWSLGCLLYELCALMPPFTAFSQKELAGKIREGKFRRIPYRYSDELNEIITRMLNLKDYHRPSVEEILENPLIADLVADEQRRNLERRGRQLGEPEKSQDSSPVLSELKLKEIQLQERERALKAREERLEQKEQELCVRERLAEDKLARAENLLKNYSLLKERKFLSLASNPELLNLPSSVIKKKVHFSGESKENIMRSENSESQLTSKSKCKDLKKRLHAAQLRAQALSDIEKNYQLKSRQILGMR
Chain of STK16 (human) (O75716 whole entry, looked up): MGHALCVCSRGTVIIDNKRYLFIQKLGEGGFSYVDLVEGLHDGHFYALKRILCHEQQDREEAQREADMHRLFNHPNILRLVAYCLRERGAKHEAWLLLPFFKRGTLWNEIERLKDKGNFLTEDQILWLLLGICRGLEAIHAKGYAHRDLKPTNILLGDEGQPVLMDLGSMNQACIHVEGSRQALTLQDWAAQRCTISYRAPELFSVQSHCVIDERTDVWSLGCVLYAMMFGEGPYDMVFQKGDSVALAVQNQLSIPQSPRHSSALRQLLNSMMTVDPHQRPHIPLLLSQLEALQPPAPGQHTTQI
Chain of KIT (human), P10721 [D816V] (P10721 whole entry D816V, looked up): as the sequence (P10721 whole entry, looked up) above, with D816V counted along it

CN1C(=O)c2ccccc2N(C)c2nc(Nc3ccc(N4CCC(O)CC4)cc3)ncc21
kinase still bound, per cent of control [1]: 88%
kinase still bound, per cent of control [2]: 98%
kinase still bound, per cent of control [3]: 55%
kinase still bound, per cent of control [4]: 97%
kinase still bound, per cent of control [5]: 77%
kinase still bound, per cent of control [6]: 73%
kinase still bound, per cent of control [7]: 67%
kinase still bound, per cent of control [8]: 100%
kinase still bound, per cent of control [9]: 100%
kinase still bound, per cent of control [10]: 100%
kinase still bound, per cent of control [11]: 100%
kinase still bound, per cent of control [12]: 28%
kinase still bound, per cent of control [13]: 95%
kinase still bound, per cent of control [14]: 4.8%
kinase still bound, per cent of control [15]: 93%
kinase still bound, per cent of control [16]: 66%
kinase still bound, per cent of control [17]: 69%
kinase still bound, per cent of control [18]: 73%
kinase still bound, per cent of control [19]: 84%
kinase still bound, per cent of control [20]: 100%
kinase still bound, per cent of control [21]: 80%
kinase still bound, per cent of control [22]: 85%
kinase still bound, per cent of control [23]: 100%
kinase still bound, per cent of control [24]: 28%
kinase still bound, per cent of control [25]: 63%
kinase still bound, per cent of control [26]: 100%
kinase still bound, per cent of control [27]: 100%
kinase still bound, per cent of control [28]: 100%
kinase still bound, per cent of control [29]: 61%
kinase still bound, per cent of control [30]: 91%
kinase still bound, per cent of control [31]: 100%
kinase still bound, per cent of control [32]: 100%
kinase still bound, per cent of control [33]: 1.8%
kinase still bound, per cent of control [34]: 63%
kinase still bound, per cent of control [35]: 66%
kinase still bound, per cent of control [36]: 61%
kinase still bound, per cent of control [37]: 63%
kinase still bound, per cent of control [38]: 59%
kinase still bound, per cent of control [39]: 100%
kinase still bound, per cent of control [40]: 79%
kinase still bound, per cent of control [41]: 78%
kinase still bound, per cent of control [42]: 6.2%

CN1C(=O)c2ccccc2N(C)c2nc(NS(=O)(=O)c3ccc(N)cc3)ncc21
kinase still bound, per cent of control [1]: 100%
kinase still bound, per cent of control [2]: 100%
kinase still bound, per cent of control [3]: 100%
kinase still bound, per cent of control [4]: 95%
kinase still bound, per cent of control [5]: 82%
kinase still bound, per cent of control [6]: 100%
kinase still bound, per cent of control [7]: 100%
kinase still bound, per cent of control [8]: 94%
kinase still bound, per cent of control [9]: 100%
kinase still bound, per cent of control [10]: 100%
kinase still bound, per cent of control [11]: 100%
kinase still bound, per cent of control [12]: 95%
kinase still bound, per cent of control [13]: 100%
kinase still bound, per cent of control [14]: 100%
kinase still bound, per cent of control [15]: 100%
kinase still bound, per cent of control [16]: 76%
kinase still bound, per cent of control [17]: 100%
kinase still bound, per cent of control [18]: 100%
kinase still bound, per cent of control [19]: 74%
kinase still bound, per cent of control [20]: 100%
kinase still bound, per cent of control [21]: 80%
kinase still bound, per cent of control [22]: 100%
kinase still bound, per cent of control [23]: 100%
kinase still bound, per cent of control [24]: 100%
kinase still bound, per cent of control [25]: 82%
kinase still bound, per cent of control [26]: 100%
kinase still bound, per cent of control [27]: 100%
kinase still bound, per cent of control [28]: 100%
kinase still bound, per cent of control [29]: 76%
kinase still bound, per cent of control [30]: 100%
kinase still bound, per cent of control [31]: 100%
kinase still bound, per cent of control [32]: 100%
kinase still bound, per cent of control [33]: 97%
kinase still bound, per cent of control [34]: 71%
kinase still bound, per cent of control [35]: 100%
kinase still bound, per cent of control [36]: 89%
kinase still bound, per cent of control [37]: 96%
kinase still bound, per cent of control [38]: 100%
kinase still bound, per cent of control [39]: 100%
kinase still bound, per cent of control [40]: 100%
kinase still bound, per cent of control [41]: 100%
kinase still bound, per cent of control [42]: 89%
